Measured values published in the NIST ThermoML archive (doi:10.1021/je800463k).

Test: mn = molality of the nth substance listed, in mol/kg
Conditions: 101 kPa, Liquid; for mass density: Pycnometric method; for electrical conductivity: Frequency=0.001 MHz, Alternating current cell with electrodes; for speed of sound: Frequency=2 MHz

O=[N+]([O-])[O-].O=[N+]([O-])[O-].[Mg+2] [magnesium nitrate] + CO
Conditions | electrical conductivity [S/m] | mass density [kg/m3] | speed of sound [m/s] | viscosity [mPa·s]
301.25 K, m1 = 0.4024 | – | 827.04 | – | –
301.3 K, m1 = 0.0082 | – | 785.69 | – | –
301.4 K, m1 = 0.2776 | – | 814.59 | – | –
301.4 K, m1 = 1.71 | – | 952.09 | – | –
302.05 K, m1 = 0.0545 | – | 790.26 | – | –
302.2 K, m1 = 0.4555 | – | 830.9 | – | –
302.25 K, m1 = 0.782 | – | 868.46 | – | –
302.45 K, m1 = 0.1047 | – | 796.51 | – | –
302.55 K, m1 = 1.004 | – | 883.47 | – | –
302.7 K, m1 = 0.6276 | – | 848.25 | – | –
302.7 K, m1 = 1.259 | – | 910.86 | – | –
302.85 K, m1 = 1.875 | – | 961.69 | – | –
303.15 K, m1 = 0.0082 | 0.1462 | 783.99 | 1091.9 | 0.5215
303.15 K, m1 = 0.0545 | 0.4108 | – | 1098.1 | 0.5545
303.15 K, m1 = 0.0667 | 0.4481 | – | 1096.9 | 0.5716
303.15 K, m1 = 0.1047 | 0.5889 | – | 1102.5 | 0.5909
303.15 K, m1 = 0.2776 | 1.123 | – | 1121.5 | 0.6836
303.15 K, m1 = 0.4024 | 1.41 | – | 1132.5 | 0.7943
303.15 K, m1 = 0.4555 | 1.489 | – | 1139.1 | 0.8264
303.15 K, m1 = 0.6276 | 1.775 | – | 1155.5 | 1.05
303.15 K, m1 = 0.782 | 1.979 | – | 1172.9 | 1.177
303.15 K, m1 = 0.881 | 2.037 | – | 1179.3 | 1.184
303.15 K, m1 = 0.9116 | 2.054 | – | 1182.3 | 1.245
303.15 K, m1 = 1.004 | 2.136 | – | 1196.9 | 1.354
303.15 K, m1 = 1.259 | 2.213 | – | 1219.1 | 1.875
303.15 K, m1 = 1.492 | 2.223 | – | 1243 | 2.267
303.15 K, m1 = 1.71 | 2.246 | – | 1263.7 | 2.73
303.15 K, m1 = 1.875 | 2.217 | – | 1272.7 | 3.138
303.25 K, m1 = 0.4024 | – | 825.26 | – | –
303.4 K, m1 = 0.2776 | – | 812.83 | – | –
303.4 K, m1 = 1.492 | – | 932.03 | – | –
303.75 K, m1 = 0.0545 | – | 788.57 | – | –
303.85 K, m1 = 0.881 | – | 868.76 | – | –
304 K, m1 = 0.0082 | – | 782.31 | – | –
304.1 K, m1 = 0.782 | – | 866.62 | – | –
304.2 K, m1 = 0.4555 | – | 829.11 | – | –
304.25 K, m1 = 0.1047 | – | 794.8 | – | –
304.35 K, m1 = 0.0667 | – | 789.8 | – | –
304.65 K, m1 = 0.6276 | – | 846.53 | – | –
304.65 K, m1 = 1.004 | – | 881.56 | – | –
304.8 K, m1 = 1.259 | – | 908.91 | – | –
304.9 K, m1 = 1.71 | – | 949.01 | – | –
304.95 K, m1 = 0.0082 | – | 780.67 | – | –
305.05 K, m1 = 0.4024 | – | 823.53 | – | –
305.15 K, m1 = 0.0667 | – | 789.04 | – | –
305.25 K, m1 = 0.2776 | – | 811.08 | – | –
305.55 K, m1 = 0.0545 | – | 786.97 | – | –
306 K, m1 = 1.875 | – | 958.63 | – | –
306.6 K, m1 = 0.0082 | – | 778.26 | – | –
306.7 K, m1 = 1.492 | – | 929.13 | – | –
306.75 K, m1 = 1.004 | – | 879.67 | – | –
306.8 K, m1 = 0.4024 | – | 821.82 | – | –
306.8 K, m1 = 0.881 | – | 866.06 | – | –
306.85 K, m1 = 0.0667 | – | 787.33 | – | –
306.85 K, m1 = 0.1047 | – | 792.32 | – | –
306.9 K, m1 = 1.259 | – | 907.07 | – | –
306.95 K, m1 = 0.4555 | – | 826.52 | – | –
307.1 K, m1 = 1.71 | – | 947.08 | – | –
307.15 K, m1 = 0.2776 | – | 809.38 | – | –
307.15 K, m1 = 0.782 | – | 863.84 | – | –
307.25 K, m1 = 0.0545 | – | 785.27 | – | –
307.55 K, m1 = 0.6276 | – | 843.81 | – | –
308.15 K, m1 = 0.0082 | 0.1518 | – | 1075.4 | 0.486
308.15 K, m1 = 0.0545 | 0.4242 | – | 1082.1 | 0.5169
308.15 K, m1 = 0.0667 | 0.4649 | – | 1083.3 | 0.5321
308.15 K, m1 = 0.1047 | 0.6114 | – | 1086 | 0.5501
308.15 K, m1 = 0.2776 | 1.172 | – | 1106.2 | 0.6334
308.15 K, m1 = 0.4024 | 1.476 | – | 1116.1 | 0.7332
308.15 K, m1 = 0.4555 | 1.559 | – | 1122.4 | 0.7633
308.15 K, m1 = 0.6276 | 1.867 | – | 1139.5 | 0.9449
308.15 K, m1 = 0.782 | 2.089 | – | 1157.4 | 1.077
308.15 K, m1 = 0.881 | 2.154 | – | 1163.7 | 1.083
308.15 K, m1 = 0.9116 | 2.173 | – | 1165.8 | 1.135
308.15 K, m1 = 1.004 | 2.266 | – | 1180.7 | 1.233
308.15 K, m1 = 1.259 | 2.359 | – | 1200 | 1.694
308.15 K, m1 = 1.492 | 2.396 | – | 1227 | 2.044
308.15 K, m1 = 1.71 | 2.421 | – | 1247.8 | 2.433
308.15 K, m1 = 1.875 | 2.395 | – | 1256.6 | 2.765
308.35 K, m1 = 1.875 | – | 956.57 | – | –
308.55 K, m1 = 0.0667 | – | 785.71 | – | –
308.6 K, m1 = 0.4024 | – | 820.2 | – | –
